How the values were obtained:
Type in all cases: cell-based
[1] = biological target: T1, human TLR9 (Homo sapiens, UniProt Q9NR96); assay: TLR9 inhibition reporter assay (HEK-Blue cells, SEAP reporter, ODN2006 stimulation); details: HEK-Blue cells overexpressing human TLR9, SEAP reporter, ODN2006 5 nM
T1 construct: host or cells: HEK-Blue cells (HEK293-derived reporter line)
T1 sequence (Q9NR96 26-1032): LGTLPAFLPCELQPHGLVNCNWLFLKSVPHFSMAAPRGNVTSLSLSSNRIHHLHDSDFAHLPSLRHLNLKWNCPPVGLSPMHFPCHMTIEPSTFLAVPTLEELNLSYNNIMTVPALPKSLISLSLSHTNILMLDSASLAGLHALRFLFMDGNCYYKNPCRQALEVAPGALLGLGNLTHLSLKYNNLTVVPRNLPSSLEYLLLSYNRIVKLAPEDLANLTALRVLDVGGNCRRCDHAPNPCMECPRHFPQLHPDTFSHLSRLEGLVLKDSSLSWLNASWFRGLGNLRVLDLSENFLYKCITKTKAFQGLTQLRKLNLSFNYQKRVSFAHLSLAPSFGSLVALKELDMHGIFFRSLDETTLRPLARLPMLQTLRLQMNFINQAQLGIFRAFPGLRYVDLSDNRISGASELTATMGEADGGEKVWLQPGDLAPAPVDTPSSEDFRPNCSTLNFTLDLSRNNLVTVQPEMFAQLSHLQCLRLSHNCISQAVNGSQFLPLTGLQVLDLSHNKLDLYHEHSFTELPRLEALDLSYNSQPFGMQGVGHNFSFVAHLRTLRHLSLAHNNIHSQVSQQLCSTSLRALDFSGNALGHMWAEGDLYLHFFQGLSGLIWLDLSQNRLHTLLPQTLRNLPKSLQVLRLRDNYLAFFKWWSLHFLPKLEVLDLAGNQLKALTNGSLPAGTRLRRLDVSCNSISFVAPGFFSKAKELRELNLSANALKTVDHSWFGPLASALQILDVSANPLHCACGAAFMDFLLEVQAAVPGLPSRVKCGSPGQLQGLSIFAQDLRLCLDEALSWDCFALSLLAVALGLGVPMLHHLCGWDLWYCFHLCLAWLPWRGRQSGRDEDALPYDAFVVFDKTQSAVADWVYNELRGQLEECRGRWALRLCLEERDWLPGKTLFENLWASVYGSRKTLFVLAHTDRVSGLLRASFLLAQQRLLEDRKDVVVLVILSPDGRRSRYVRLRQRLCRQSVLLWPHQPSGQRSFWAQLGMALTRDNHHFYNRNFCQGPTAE
Method in brief: (§1)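 Cells seeded per well (15000 TLR7, 20,000 TLR8, 25,000 TLR9); compound added over 0.05 nM–50 μM for 30 min at room temperature; agonist added (TLR7 gardiquimod 7.5 μM, TLR8 R848 15.9 μM, TLR9 ODN2006 5 nM); 22 h at 37 °C; SEAP measured; percent inhibition calculated.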

[2] = biological target: T2, human TLR7 (Homo sapiens, UniProt Q9NYK1); assay: TLR7 inhibition reporter assay (HEK-Blue cells, SEAP reporter, gardiquimod stimulation); details: HEK-Blue cells overexpressing human TLR7, SEAP reporter, gardiquimod 7.5 μM
T2 construct: host or cells: HEK-Blue cells (HEK293-derived reporter line)
T2 sequence (Q9NYK1 27-1049): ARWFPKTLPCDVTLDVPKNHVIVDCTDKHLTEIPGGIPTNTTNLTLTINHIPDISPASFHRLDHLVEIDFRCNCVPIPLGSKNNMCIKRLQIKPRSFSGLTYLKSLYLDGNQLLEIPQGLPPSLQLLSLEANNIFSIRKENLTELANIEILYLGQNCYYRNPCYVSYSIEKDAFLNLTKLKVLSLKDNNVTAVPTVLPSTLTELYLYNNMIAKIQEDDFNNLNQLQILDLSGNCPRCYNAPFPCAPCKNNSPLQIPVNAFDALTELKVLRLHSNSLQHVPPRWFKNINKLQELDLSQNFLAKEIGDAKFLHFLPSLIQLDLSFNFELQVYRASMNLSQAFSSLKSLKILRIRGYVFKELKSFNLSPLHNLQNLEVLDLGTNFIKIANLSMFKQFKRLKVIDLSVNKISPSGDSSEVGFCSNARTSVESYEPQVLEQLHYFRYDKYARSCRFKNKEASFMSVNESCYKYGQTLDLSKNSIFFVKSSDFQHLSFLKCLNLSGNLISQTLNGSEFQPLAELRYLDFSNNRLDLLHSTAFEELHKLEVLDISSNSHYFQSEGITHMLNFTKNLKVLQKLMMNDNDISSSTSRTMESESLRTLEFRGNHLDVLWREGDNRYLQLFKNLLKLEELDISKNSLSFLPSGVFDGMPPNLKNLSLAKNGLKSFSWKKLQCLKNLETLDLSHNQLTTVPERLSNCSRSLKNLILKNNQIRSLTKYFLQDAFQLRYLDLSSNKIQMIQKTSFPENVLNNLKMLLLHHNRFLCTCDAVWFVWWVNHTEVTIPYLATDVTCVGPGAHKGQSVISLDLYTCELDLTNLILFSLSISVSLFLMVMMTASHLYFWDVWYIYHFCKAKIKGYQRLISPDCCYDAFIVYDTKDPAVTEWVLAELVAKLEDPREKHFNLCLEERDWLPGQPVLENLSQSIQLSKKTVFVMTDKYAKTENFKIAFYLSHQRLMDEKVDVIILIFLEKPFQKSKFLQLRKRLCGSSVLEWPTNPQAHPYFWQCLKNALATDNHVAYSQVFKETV
Method in brief: as §1

[3] = biological target: T3, human TLR8 (Homo sapiens, UniProt Q9NR97); assay: TLR8 inhibition reporter assay (HEK-Blue cells, SEAP reporter, R848 stimulation); details: HEK-Blue cells overexpressing human TLR8, SEAP reporter, R848 15.9 μM
T3 construct: host or cells: HEK-Blue cells (HEK293-derived reporter line)
T3 sequence (Q9NR97 27-1041): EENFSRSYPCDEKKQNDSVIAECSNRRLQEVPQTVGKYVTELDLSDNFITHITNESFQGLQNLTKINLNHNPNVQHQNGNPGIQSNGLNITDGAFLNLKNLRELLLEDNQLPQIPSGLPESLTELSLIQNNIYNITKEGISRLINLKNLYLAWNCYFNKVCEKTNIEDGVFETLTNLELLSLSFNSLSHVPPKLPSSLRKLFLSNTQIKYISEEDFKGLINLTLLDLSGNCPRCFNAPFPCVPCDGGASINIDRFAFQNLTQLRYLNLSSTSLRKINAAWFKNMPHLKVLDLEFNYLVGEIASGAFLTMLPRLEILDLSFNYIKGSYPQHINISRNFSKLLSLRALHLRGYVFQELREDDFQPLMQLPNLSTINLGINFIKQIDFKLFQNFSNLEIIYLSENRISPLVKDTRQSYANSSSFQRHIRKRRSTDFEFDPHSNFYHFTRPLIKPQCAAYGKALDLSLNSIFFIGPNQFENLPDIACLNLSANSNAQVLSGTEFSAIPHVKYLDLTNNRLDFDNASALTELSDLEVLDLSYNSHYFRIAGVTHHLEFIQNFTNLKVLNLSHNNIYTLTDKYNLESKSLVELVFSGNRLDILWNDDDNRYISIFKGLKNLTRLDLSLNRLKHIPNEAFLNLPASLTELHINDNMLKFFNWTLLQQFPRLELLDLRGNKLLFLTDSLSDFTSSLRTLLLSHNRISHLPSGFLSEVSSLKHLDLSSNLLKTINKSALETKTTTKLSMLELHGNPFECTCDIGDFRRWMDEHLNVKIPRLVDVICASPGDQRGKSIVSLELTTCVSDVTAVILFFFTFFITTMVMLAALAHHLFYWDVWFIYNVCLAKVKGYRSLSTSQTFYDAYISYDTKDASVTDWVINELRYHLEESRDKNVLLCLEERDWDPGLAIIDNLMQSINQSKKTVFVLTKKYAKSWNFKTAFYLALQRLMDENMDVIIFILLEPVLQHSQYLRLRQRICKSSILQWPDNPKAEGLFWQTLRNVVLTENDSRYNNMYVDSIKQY
Method in brief: as §1

| SMILES | IC50 [1] [nM] | IC50 [2] [nM] | IC50 [3] [nM] |
| --- | --- | --- | --- |
| CNC(=O)CN1CCC(c2ccc3[nH]c(-c4cc(Cl)c5ncccc5c4)c(C(C)C)c3c2)CC1 [Example 381, 2-(4-(2-(8-chloroquinolin-6-yl)-3-isopropyl-1H-indol-5-yl)piperidin-1-yl)-N-methylacetamide] | 1000 to 50000 | < 100 | 100 to 1000 |
| Cc1cc(-c2[nH]c3ccc(C4CCN(CC(=O)N(C)C)CC4)cc3c2C(C)C)cn2nnnc12 [Example 313, 2-(4-(3-isopropyl-2-(8-methyltetrazolo[1,5-a]pyridin-6-yl)-1H-indol-5-yl)piperidin-1-yl)-N,N-dimethylacetamide] | 1000 to 50000 | < 100 | < 100 |
| CC(C)c1c(-c2ccc3ncsc3n2)[nH]c2ccc(C3CCNCC3)cc12 [Example 209, 5-(3-isopropyl-5-(piperidin-4-yl)-1H-indol-2-yl) thiazolo[5,4-b]pyridine] | 1000 to 50000 | < 100 | < 100 |
| CC(C)c1c(-c2cnc3cnccn23)[nH]c2ccc(C3CCN(CC(=O)N(C)C)CC3)cc12 [Example 426, 2-(4-(2-(imidazo[1,2-a]pyrazin-3-yl)-3-isopropyl-1H-indol-5-yl)piperidin-1-yl)-N,N-dimethylacetamide] | 1000 to 50000 | > 3130 | 1000 to 50000 |
| Cc1cc(-c2[nH]c3ccc(C4CCN(C(=O)CN(C)C)CC4)cc3c2C(C)C)cc2[nH]c(=O)oc12 [Example 490, 5-(5-(1-(dimethylglycyl)piperidin-4-yl)-3-isopropyl-1H-indol-2-yl)-7-methylbenzo[d]oxazol-2(3H)-one] | 1000 to 50000 | 100 to 1000 | 100 to 1000 |
| Cc1nn2ccc(-c3[nH]c4ccc(C5CCN(CC(=O)N(C)C)CC5)cc4c3C(C)C)nc2c1F [Example 400, 2-(4-(2-(3-fluoro-2-methylpyrazolo[1,5-a]pyrimidin-5-yl)-3-isopropyl-1H-indol-5-yl)piperidin-1-yl)-N,N-dimethylacetamide] | 1000 to 50000 | > 3130 | 1000 to 50000 |
| CC(C)c1c(-c2ccnc3[nH]ncc23)[nH]c2ccc(C3CCN(Cc4cccnc4)CC3)cc12 [Example 907, 4-(3-isopropyl-5-(1-(pyridin-3-ylmethyl)piperidin-4-yl)-1H-indol-2-yl)-1H-pyrazolo[3,4-b]pyridine] | 1000 to 50000 | < 100 | < 100 |
| CC(C)c1c(-c2cnc3nn(C)cc3c2)[nH]c2ccc(C3CCN(CC(C)(C)O)CC3)cc12 [Example 765, 1-(4-(3-isopropyl-2-(2-methyl-2H-pyrazolo[3,4-b]pyridin-5-yl)-1H-indol-5-yl)piperidin-1-yl)-2-methylpropan-2-ol] | 1000 to 50000 | 100 to 1000 | 1000 to 50000 |
| CC(=O)N1CCC(N2CCC(c3ccc4[nH]c(-c5ccnc6[nH]ncc56)c(C(C)C)c4c3)CC2)CC1 [Example 823, 1-(4-(3-isopropyl-2-(1H-pyrazolo[3,4-b]pyridin-4-yl)-1H-indol-5-yl)-[1,4′-bipiperidin]-1′-yl)ethan-1-one] | 1000 to 50000 | < 100 | < 100 |
| CC(C)c1c(-c2ccc3onc(N)c3c2)[nH]c2ccc(C3CCNCC3)cc12 [Example 7, 5-(3-isopropyl-5-(piperidin-4-yl)-1H-indol-2-yl)benzo[d]isoxazol-3-amine] | 100 to 1000 | < 100 | < 100 |

Second part, the compound after the results:

| IC50 [1] [nM] | IC50 [2] [nM] | IC50 [3] [nM] | SMILES |
| --- | --- | --- | --- |
| < 100 | < 100 | < 100 | CC(C)c1c(-c2ccnc3[nH]ncc23)[nH]c2ccc(C3CCN(C4CCN(C(C)C)CC4)CC3)cc12 [Example 821, 4-(3-isopropyl-5-(1′-isopropyl-[1,4′-bipiperidin]-4-yl)-1H-indol-2-yl)-1H-pyrazolo[3,4-b]pyridine] |
| 100 to 1000 | 1000 to 50000 | 1000 to 50000 | CC(C)c1c(-c2cnc3cnccn23)[nH]c2ccc(C3CCNCC3)cc12 [Example 194, 3-(3-isopropyl-5-(piperidin-4-yl)-1H-indol-2-yl)imidazo[1,2-a]pyrazine] |
| 100 to 1000 | < 100 | 1000 to 50000 | Cc1cn2cc(-c3[nH]c4ccc(C5CCNCC5)cc4c3C(C)C)cnc2n1 [Example 159, 6-(3-isopropyl-5-(piperidin-4-yl)-1H-indol-2-yl)-2-methylimidazo[1,2-a]pyrimidine] |
| 100 to 1000 | < 100 | < 100 | CCOc1cc(-c2[nH]c3ccc(C4CCN(C(=O)CN(C)C)CC4)cc3c2C(C)C)cc2ncnn12 [Example 498, 2-(dimethylamino)-1-(4-(2-(5-ethoxy-[1,2,4]triazolo[1,5-a]pyridin-7-yl)-3-isopropyl-1H-indol-5-yl)piperidin-1-yl)ethan-1-one] |
| 100 to 1000 | < 100 | < 100 | COC(=O)C1CC(N2CCC(c3ccc4[nH]c(-c5ccnc6[nH]ncc56)c(C(C)C)c4c3)CC2)CCN1 (stereo not drawn) [Example 831, methyl 4-(3-isopropyl-2-(1H-pyrazolo[3,4-b]pyridin-4-yl)-1H-indol-5-yl)-[1,4′-bipiperidine]-2′-carboxylate] |

From patent US11739098B2 (BRISTOL-MYERS SQUIBB COMPANY, priority 2017, dated 2023)
